The source of these data is patent US11254668B2, “Pyrazolo[1,5-A]pyrazin-4-yl and related derivatives” (Pfizer Inc., priority 2017, dated 2022).

Bounds are passed on as bounds.

Common to all, as to format: biochemical
One assay has as its target JAK1 (Homo sapiens (Human), UniProt P23458). The experiment in a line: JAK Caliper Enzyme Assay at 1 mM ATP, JAK1. The method in brief: (§1)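 Recombinant human kinase domains phosphorylated a fluorescent synthetic peptide at room temperature, with enzyme level and time tuned to 20% to 30% conversion; EDTA stop buffer ended reactions. Mobility-shift separation gave percent product from peak heights, normalised to DMSO and positive controls, and IC50s came from concentration–effect curves.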

For the next assay, the target named is TYK2 (Homo sapiens (Human), UniProt P29597). Briefly: JAK Caliper Enzyme Assay at 1 mM ATP, TYK2. The essentials: (§2)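 Inhibition is measured as reduced phosphorylation of a synthetic peptide by the recombinant human kinase domain at 1 mM ATP. Conditions give 20–30% conversion at room temperature before EDTA quench, and on-chip separation of labelled substrate and product yields percent conversion for dose–response plotting.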

Another assay concerns the target JAK3 (Homo sapiens (Human), UniProt P52333). Briefly: JAK Caliper Enzyme Assay at 1 mM ATP, JAK3. The essentials: as §1
The next assay addresses JAK2 (Homo sapiens (Human), UniProt O60674). The experiment in a line: JAK Caliper Enzyme Assay at 1 mM ATP, JAK2. The essentials: as §2

Chain of JAK3 (P52333 822-1111): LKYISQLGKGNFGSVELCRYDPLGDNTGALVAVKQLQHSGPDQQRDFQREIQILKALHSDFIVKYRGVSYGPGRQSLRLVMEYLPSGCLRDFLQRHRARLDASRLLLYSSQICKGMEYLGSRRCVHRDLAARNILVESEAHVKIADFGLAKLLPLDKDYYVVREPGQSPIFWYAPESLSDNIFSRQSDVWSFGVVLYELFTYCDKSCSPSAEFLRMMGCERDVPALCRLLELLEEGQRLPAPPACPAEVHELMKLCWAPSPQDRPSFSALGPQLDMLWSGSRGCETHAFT
Chain of TYK2 (P29597 897-1176): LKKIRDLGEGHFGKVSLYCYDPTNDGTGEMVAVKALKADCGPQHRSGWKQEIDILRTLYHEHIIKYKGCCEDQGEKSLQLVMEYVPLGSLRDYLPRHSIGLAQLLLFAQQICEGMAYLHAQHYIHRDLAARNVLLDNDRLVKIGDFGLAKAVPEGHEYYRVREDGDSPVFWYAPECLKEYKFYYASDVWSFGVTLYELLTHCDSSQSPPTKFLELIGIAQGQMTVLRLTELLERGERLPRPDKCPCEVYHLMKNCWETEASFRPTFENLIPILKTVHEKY
Chain of JAK1 (P23458 875-1153): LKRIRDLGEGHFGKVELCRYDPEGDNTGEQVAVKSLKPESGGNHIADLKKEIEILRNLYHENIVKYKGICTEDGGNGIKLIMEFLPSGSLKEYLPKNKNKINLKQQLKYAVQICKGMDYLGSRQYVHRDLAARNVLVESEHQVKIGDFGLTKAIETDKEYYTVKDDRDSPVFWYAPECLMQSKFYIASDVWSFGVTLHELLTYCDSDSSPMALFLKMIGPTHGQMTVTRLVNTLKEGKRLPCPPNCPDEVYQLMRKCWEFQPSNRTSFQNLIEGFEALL
Chain of JAK2 (O60674 849-1124): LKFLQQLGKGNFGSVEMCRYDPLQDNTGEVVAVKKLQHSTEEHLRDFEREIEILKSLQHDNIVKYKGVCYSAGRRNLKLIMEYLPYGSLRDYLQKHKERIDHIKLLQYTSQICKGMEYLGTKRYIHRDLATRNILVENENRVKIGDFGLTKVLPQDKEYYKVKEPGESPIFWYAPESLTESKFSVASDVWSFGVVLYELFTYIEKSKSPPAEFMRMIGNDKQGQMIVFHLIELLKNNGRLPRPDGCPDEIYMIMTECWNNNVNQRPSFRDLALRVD

As a reminder, the IC50 is the concentration that gives 50% inhibition. `CS(=O)(=O)N1CC(CC#N)(n2cc(-c3cc(-c4cn[nH]c4)cc4ncccc34)cn2)C1` [Example 289, [1-(methylsulfonyl)-3-{4-[7-(1H-pyrazol-4-yl)quinolin-5-yl]-1H-pyrazol-1-yl}azetidin-3-yl]acetonitrile]: the IC50 on JAK1 is 1530 nM; at TYK2, 197 nM; on JAK3, greater than 10000 nM; at JAK2, 525 nM.
As for `N#CC[C@]1(n2cc(-c3cc(-c4cn[nH]c4N)cc4ncccc34)cn2)C[C@H](C#N)C1` [Example 290, trans-3-{4-[7-(5-amino-1H-pyrazol-4-yl)quinolin-5-yl]-1H-pyrazol-1-yl}-3-(cyanomethyl)cyclobutanecarbonitrile], the 50% inhibitory concentration (IC50) on JAK1 was 2960 nM; at TYK2, 236 nM; on JAK3, greater than 10000 nM; on JAK2, 1750 nM.
As for `CO[C@H]1C[C@](CC#N)(n2cc(-c3cc(-c4c[nH]nc4N)cc4ncccc34)cn2)C1` [Example 291, (trans-1-{4-[7-(3-amino-1H-pyrazol-4-yl)quinolin-5-yl]-1H-pyrazol-1-yl}-3-methoxycyclobutyl)acetonitrile], the IC50 on JAK1 is 8820 nM; at TYK2, 343 nM; at JAK3 it was greater than 10000 nM; at JAK2, 3740 nM.
In the case of `Cn1cc(-c2cc(-c3cnn(C4(CC#N)CN(CC#N)C4)c3)c3cccnc3c2)cn1` [Example 292, 2,2′-(3-{4-[7-(1-methyl-1H-pyrazol-4-yl)quinolin-5-yl]-1H-pyrazol-1-yl}azetidine-1,3-diyl)diacetonitrile], the 50% inhibitory concentration (IC50) is 653 nM at JAK1, 36 nM on TYK2, greater than 10000 nM at JAK3 and 71 nM on JAK2.
Take `Cc1cc(-c2cc(-c3cc[nH]n3)cc3ncccc23)nn1C1(CC#N)CN(S(C)(=O)=O)C1` [Example 293, [3-{5-methyl-3-[7-(1H-pyrazol-3-yl)quinolin-5-yl]-1H-pyrazol-1-yl}-1-(methylsulfonyl)azetidin-3-yl]acetonitrile]: the IC50 is 8190 nM on JAK1, 81 nM at TYK2, greater than 10000 nM on JAK3 and 2980 nM on JAK2.
For the compound `Cn1cc(-c2cc(-c3cn(C4(CC#N)CN(S(C)(=O)=O)C4)nn3)c3cccnc3c2)cn1` [Example 294, [3-{4-[7-(1-methyl-1H-pyrazol-4-yl)quinolin-5-yl]-1H-1,2,3-triazol-1-yl}-1-(methylsulfonyl)azetidin-3-yl]acetonitrile], the IC50 on JAK1 was 1340 nM; on TYK2, 267 nM; on JAK3 it was greater than 10000 nM; at JAK2 it was 151 nM.
For the compound `CS(=O)(=O)N1CC(CC#N)(n2cc(-c3cc(-c4ccc(=O)[nH]c4)cc4ncccc34)nn2)C1` [Example 295, [1-(methylsulfonyl)-3-{4-[7-(6-oxo-1,6-dihydropyridin-3-yl)quinolin-5-yl]-1H-1,2,3-triazol-1-yl}azetidin-3-yl]acetonitrile], the IC50 is 7720 nM at JAK1, 155 nM on TYK2, greater than 10000 nM at JAK3 and 2580 nM at JAK2.
Take `N#CCC1(n2ncc(-c3cc(-c4cc[nH]n4)cc4ncccc34)n2)CN(CC(F)(F)F)C1` [Example 296, [3-{4-[7-(1H-pyrazol-3-yl)quinolin-5-yl]-2H-1,2,3-triazol-2-yl}-1-(2,2,2-trifluoroethyl)azetidin-3-yl]acetonitrile]: the IC50 on JAK1 was 534 nM; on TYK2, 41 nM; at JAK3 it was greater than 10000 nM; at JAK2, 598 nM.
For `N#CCC1(n2ncc(-c3cc(-c4cc[nH]n4)cc4ncccc34)n2)CN(CC2(F)CC2)C1` [Example 297] the same measures were 4590 nM, 315 nM, greater than 10000 nM and 2470 nM.
